What was measured:
Type in all cases: functional
[1] = system: Photobacterium leiognathi; assay: Growth inhibition of Photobacterium leiognathi Sh1 assessed as bio-luminescence at 0.025 mg/ml after 10 min by acute action test relative to control; design: scale not given: the % may be the effect or the level left
SK-MEL-5 [2] = assay: Cytotoxicity against Homo sapiens (human) SK-MEL-5 cells assessed as cell growth at 10 uM after 48 hr by SRB assay relative to control; details: SK-MEL-5, 48 h, read-out: Activity
NCI-H460 [3] = assay: Cytotoxicity against Homo sapiens (human) NCI-H460 cells after 48 hr by SRB assay; details: NCI-H460, 48 h
SF-539 = assay: Cytotoxicity against Homo sapiens (human) SF539 cells assessed as cell growth at 10 uM after 48 hr by SRB assay relative to control; details: SF-539, 48 h, read-out: Activity
SW-620 = assay: Cytotoxicity against Homo sapiens (human) SW620 cells assessed as cell growth at 10 uM after 48 hr by SRB assay relative to control; details: SW-620, 48 h, read-out: Activity
SK-MEL-5 [4] = assay: Cytotoxicity against Homo sapiens (human) SK-MEL-5 cells after 48 hr by SRB assay; details: SK-MEL-5, 48 h
HOP-62 = assay: Cytotoxicity against Homo sapiens (human) HOP62 cells after 48 hr by SRB assay; details: HOP-62, 48 h
A498 [5] = assay: Cytotoxicity against Homo sapiens (human) A498 cells assessed as cell growth at 10 uM after 48 hr by SRB assay relative to control; details: A498, 48 h, read-out: Activity
COLO 205 = assay: Cytotoxicity against Homo sapiens (human) COLO205 cells assessed as cell growth at 10 uM after 48 hr by SRB assay relative to control; details: COLO 205, 48 h, read-out: Activity
NCI-H460 [6] = assay: Cytotoxicity against Homo sapiens (human) NCI-H460 cells assessed as cell growth at 10 uM after 48 hr by SRB assay relative to control; details: NCI-H460, 48 h, read-out: Activity
HCT-116 = assay: Cytotoxicity against Homo sapiens (human) HCT116 cells assessed as cell growth at 10 uM after 48 hr by SRB assay relative to control; details: HCT-116, 48 h, read-out: Activity
HT-29 = assay: Cytotoxicity against Homo sapiens (human) HT-29 cells assessed as cell growth at 10 uM after 48 hr by SRB assay relative to control; details: HT-29, 48 h, read-out: Activity
[7] = system: Photobacterium leiognathi; assay: Growth inhibition of Photobacterium leiognathi Sh1 assessed as bio-luminescence at 0.025 mg/ml after 16 to 18 hr by chronic action test relative to control; design: scale not given: the % may be the effect or the level left
CAKI-1 = assay: Cytotoxicity against Homo sapiens (human) Caki1 cells assessed as cell growth at 10 uM after 48 hr by SRB assay relative to control; details: CAKI-1, 48 h, read-out: Activity
A498 [8] = assay: Cytotoxicity against Homo sapiens (human) A498 cells after 48 hr by SRB assay; details: A498, 48 h
UO-31 = assay: Cytotoxicity against Homo sapiens (human) UO31 cells assessed as cell growth at 10 uM after 48 hr by SRB assay relative to control; details: UO-31, 48 h, read-out: Activity
SNB-75 = assay: Cytotoxicity against Homo sapiens (human) SNB75 cells assessed as cell growth at 10 uM after 48 hr by SRB assay relative to control; details: SNB-75, 48 h, read-out: Activity
KM12 = assay: Cytotoxicity against Homo sapiens (human) KM12 cells assessed as cell growth at 10 uM after 48 hr by SRB assay relative to control; details: KM12, 48 h, read-out: Activity
ACHN = assay: Cytotoxicity against Homo sapiens (human) ACHN cells assessed as cell growth at 10 uM after 48 hr by SRB assay relative to control; details: read-out: Activity
SF-268 = assay: Cytotoxicity against Homo sapiens (human) SF268 cells assessed as cell growth at 10 uM after 48 hr by SRB assay relative to control; details: SF-268, 48 h, read-out: Activity
[9] = system: Photobacterium leiognathi; assay: Growth inhibition of Photobacterium leiognathi Sh1 assessed as bio-luminescence at 0.1 mg/ml after 10 min by acute action test relative to control; design: scale not given: the % may be the effect or the level left
U-251 = assay: Cytotoxicity against Homo sapiens (human) U251 cells assessed as cell growth at 10 uM after 48 hr by SRB assay relative to control; details: U-251, 48 h, read-out: Activity
[10] = system: Photobacterium leiognathi; assay: Growth inhibition of Photobacterium leiognathi Sh1 assessed as bio-luminescence at 0.1 mg/ml after 16 to 18 hr by chronic action test relative to control; design: scale not given: the % may be the effect or the level left
NCI-H522 = assay: Cytotoxicity against Homo sapiens (human) NCI-H522 cells after 48 hr by SRB assay; details: NCI-H522, 48 h
MDA-MB-231 = assay: Cytotoxicity against Homo sapiens (human) MDA-MB-231 cells assessed as cell growth at 10 uM after 48 hr by SRB assay relative to control; details: MDA-MB-231, 48 h, read-out: Activity
[11] = system: Photobacterium leiognathi; assay: Growth inhibition of Photobacterium leiognathi Sh1 assessed as bio-luminescence at 0.25 mg/ml after 10 min by acute action test relative to control; design: scale not given: the % may be the effect or the level left
[12] = system: Photobacterium leiognathi; assay: Growth inhibition of Photobacterium leiognathi Sh1 assessed as bio-luminescence at 0.25 mg/ml after 16 to 18 hr by chronic action test relative to control; design: scale not given: the % may be the effect or the level left
BT-549 = assay: Cytotoxicity against Homo sapiens (human) BT549 cells assessed as cell growth at 10 uM after 48 hr by SRB assay relative to control; details: BT-549, 48 h, read-out: Activity
SN12C = assay: Cytotoxicity against Homo sapiens (human) SN12C cells assessed as cell growth at 10 uM after 48 hr by SRB assay relative to control; details: read-out: Activity
[13] = Cytotoxicity against Homo sapiens (human) NCI-ADR-RES cells assessed as cell growth at 10 uM after 48 hr by SRB assay relative to control; details: read-out: Activity
UACC-257 = assay: Cytotoxicity against Homo sapiens (human) UACC257 cells assessed as cell growth at 10 uM after 48 hr by SRB assay relative to control; details: UACC-257, 48 h, read-out: Activity
OVCAR-8 = assay: Cytotoxicity against Homo sapiens (human) OVCAR8 cells assessed as cell growth at 10 uM after 48 hr by SRB assay relative to control; details: OVCAR-8, 48 h, read-out: Activity
LOX IMVI = assay: Cytotoxicity against Homo sapiens (human) LOXIMVI cells assessed as cell growth at 10 uM after 48 hr by SRB assay relative to control; details: read-out: Activity
MCF7 = assay: Cytotoxicity against Homo sapiens (human) MCF7 cells assessed as cell growth at 10 uM after 48 hr by SRB assay relative to control; details: MCF7, 48 h, read-out: Activity
PC-3 = assay: Cytotoxicity against Homo sapiens (human) PC3 cells assessed as cell growth at 10 uM after 48 hr by SRB assay relative to control; details: PC-3, 48 h, read-out: Activity
786-0 = assay: Cytotoxicity against Homo sapiens (human) 786-0 cells assessed as cell growth at 10 uM after 48 hr by SRB assay relative to control; details: 786-0, 48 h, read-out: Activity
RXF 393 = assay: Cytotoxicity against Homo sapiens (human) RXF393 cells assessed as cell growth at 10 uM after 48 hr by SRB assay relative to control; details: RXF 393, 48 h, read-out: Activity
Malme-3M = assay: Cytotoxicity against Homo sapiens (human) MALME-3M cells assessed as cell growth at 10 uM after 48 hr by SRB assay relative to control; details: read-out: Activity
SR = assay: Cytotoxicity against Homo sapiens (human) SR cells assessed as cell growth at 10 uM after 48 hr by SRB assay relative to control; details: read-out: Activity
HOP-92 = assay: Cytotoxicity against Homo sapiens (human) HOP92 cells assessed as cell growth at 10 uM after 48 hr by SRB assay relative to control; details: HOP-92, 48 h, read-out: Activity
Hs-578T = assay: Cytotoxicity against Homo sapiens (human) Hs 578T cells assessed as cell growth at 10 uM after 48 hr by SRB assay relative to control; details: read-out: Activity
OVCAR-4 = assay: Cytotoxicity against Homo sapiens (human) OVCAR4 cells assessed as cell growth at 10 uM after 48 hr by SRB assay relative to control; details: OVCAR-4, 48 h, read-out: Activity
MDA-MB-435 = assay: Cytotoxicity against Homo sapiens (human) MDA-MB-435 cells assessed as cell growth at 10 uM after 48 hr by SRB assay relative to control; details: MDA-MB-435, 48 h, read-out: Activity
[14] = read-out: pLC50 (the source's name) (converted)

Compound | Activity [1] | growth at 10 µM (SK-MEL-5 [2]) | growth at 10 µM (SF-539) | growth at 10 µM (A498 [5]) | growth at 10 µM (NCI-H460 [6]) | growth at 10 µM (HCT-116) | growth at 10 µM (HT-29) | Activity [7] | growth at 10 µM (UO-31) | growth at 10 µM (SNB-75) | growth at 10 µM (ACHN) | Activity [9] | growth at 10 µM (U-251) | Activity [10] | growth at 10 µM (MDA-MB-231) | Activity [11] | Activity [12] | growth at 10 µM (BT-549) | further results
O=C(CSc1nc2ccccc2c2nc(=O)c(-c3ccccc3)nn12)NCc1ccc(F)cc1 | 77.8% | 17.9% | 30.8% | 24.8% | -25.4% | 38.9% | 30.9% | 90.9% | 12.7% | 44.3% | 43.7% | 78.8% | 19.9% | 76.9% | 15.7% | 91.7% | 166.7% | 45.9% | GI50 (NCI-H460 [3]): 2.57 µM; CC50 (NCI-H460 [3]; [14]): > 100 µM; TGI (NCI-H460 [3]; read-out: pTGI): > 100 µM; growth at 10 µM (SW-620): 45.7%; GI50 (SK-MEL-5 [4]): 3.02 µM; LC50 (SK-MEL-5 [4]): > 100 µM; TGI (SK-MEL-5 [4]; read-out: pTGI): > 100 µM; GI50 (HOP-62): 1.74 µM; LC50 (HOP-62): > 100 µM; TGI (HOP-62; read-out: pTGI (converted)): 6.92 µM; growth at 10 µM (COLO 205): 30.8%; growth at 10 µM (CAKI-1): -5.36%; GI50 (A498 [8]): 1.12 µM; LC50 (A498 [8]): > 100 µM; TGI (A498 [8]; read-out: pTGI (converted)): 34.7 µM; growth at 10 µM (KM12): 9.97%; growth at 10 µM (SF-268): 51.2%; GI50 (NCI-H522): 2.51 µM; CC50 (NCI-H522; [14]): > 100 µM; TGI (NCI-H522; read-out: pTGI (converted)): 31.6 µM
Cc1ccc(CNC(=O)CSc2nc3ccccc3c3nc(=O)c(-c4ccccc4)nn23)cc1 | 84.6% | 81.8% | 48% | 75.5% | 72.1% | 32.5% | 78.8% | 80% | 61.9% | 62.5% | 85.8% | 106% | 63% | 112% | 70.5% | 145.5% | 140% | 26.9% | growth at 10 µM (SN12C): 78.6%; growth at 10 µM [13]: 61.4%; growth at 10 µM (UACC-257): 71.1%; growth at 10 µM (OVCAR-8): 60.9%; growth at 10 µM (LOX IMVI): 78.6%; growth at 10 µM (MCF7): 79.1%; growth at 10 µM (PC-3): 83%; growth at 10 µM (786-0): 80.2%; growth at 10 µM (RXF 393): 77.2%; growth at 10 µM (Malme-3M): 77.2%; growth at 10 µM (SR): 71.4%; growth at 10 µM (HOP-92): 85.6%; growth at 10 µM (Hs-578T): 62.3%; growth at 10 µM (OVCAR-4): 74.9%; growth at 10 µM (MDA-MB-435): 67.7%

Reference: ChEMBL document CHEMBL3045943, “Novel N-aryl(alkaryl)-2-[(3-R-2-oxo-2H-[1,2,4]triazino[2,3-c]quinazoline-6-yl)thio]acetamides: synthesis, cytotoxicity, anticancer activity, COMPARE analysis and docking” (2013)
